Reference: patent US10537102B2, “Synergistic fungicidal composition for controlling plant diseases” (Sumitomo Chemical Company, Limited, priority 2016, dated 2020)

Legend:
[1] = system: Septoria leaf blotch (Mycosphaerella graminicola); assay: Test Example 3: growth of Septoria leaf blotch in YBG medium, microtiter plate, absorbance at 550 nm; assay type: cell-based; settings: single use, 18° C., four days
Experimental: Each of the present compound 1-3 or the present compound 2 was dissolved into dimethyl sulfoxide such that each concentration of these compounds was adjusted to one hundred fifty times as much as the concentration indicated in the below-mentioned Table 3. The resultant agent solution was dispensed into each microtiter plate (with 96 wells) in 1 μl portion thereof per well. 149 μl of YBG medium to which conidia of Septoria leaf blotch (Mycosphaerella graminicola) was inoculated in advance (which was prepared by dissolving 10 g of yeast extract, 10 g of Bacto Peptone, and 20 mL of glycerol into 1 L of water, followed by sterilizing the medium) was dispensed into each of the well to which the agent solution was dispensed. The plate was cultivated at 18° C. for four days, thereby allowing Septoria leaf blotch (Mycosphaerella graminicola) to undergo proliferation, and the absorbance at 550 nm of each well of the microtiter plate was then measured to examine a degree of growth of Septoria leaf blotch (hereinafter referred to as “treated group”).
Whereas, Septoria leaf blotch was proliferated similarly to the case of the treated group except that dimethyl sulfoxide was used instead of the agent solution, and the degree of the growth was examined (hereinafter referred to as “untreated group”). The efficacy was calculated from each of the obtained degree of growth of the treated group and the untreated group respectively by the following “Equation 1”.
Efficacy (%)=100×(X−Y)/X Equation 1
X: Degree of growth of fungus in the untreated group
Y: Degree of growth of fungus in the treated group

[2] = system: Brown rust (Puccinia recondita); assay: Test Example 4: foliar spray on wheat, Brown rust lesion area; assay type: in vivo, Puccinia recondita on wheat (cultivar. Shirogane); settings: single use, flowable, foliar spray one day before inoculation
Experimental: Five (5) parts of the present compound 1-3, 35 parts of a mixture of white carbon and ammonium polyoxyethylene alkyl ether sulfate (the weight ratio of 1:1) and […] of water were mixed, and the mixture was then finely-ground by a wet grinding method to obtain a flowable comprising the present compound 1-3. Separately, the flowable comprising the present compound 2 was prepared according to the above-mentioned similar method except that the […].
Each of the flowable comprising the present compound 1-3 and the flowable comprising the present compound 2 was diluted with water and if necessary, the resultant dilute solutions were mixed each other such that each concentration of the respective compounds in the dilution solution was adjusted to the concentration indicated in Table 4, to prepare the dilution solutions, respectively.
A plastic pot was filled with soil, and thereto wheat (cultivar. Shirogane) was seeded, and the plants were grown in a greenhouse for ten days. The above-mentioned dilution solutions were sprayed to foliar parts so as to adhere adequately onto the surfaces of leaves of the above wheats. After spraying the dilute solution, the plants were air-dried, and one day after the application, an aqueous suspension of uredospores of Brown rust (Puccinia recondita) was inoculated by spraying thereto. After the inoculation, the plants were placed at 27° C. under humid condition for one day, and were then cultivated under lighting for ten days, and a lesion area was examined (hereinafter referred to as “lesion area of treated group”).
Whereas, wheats were cultivated similarly to the treated group except that no foliage application of the above-mentioned agent solution was done, and Brown rust were inoculated, and the lesion area thereof was examined (hereinafter referred to as “lesion area of the untreated group”).
From each of the lesion area of the treated group and the untreated group, respectively, the efficacy of the treated group was calculated by the following Equation 2.
Efficacy (%)=[1−(lesion area of the treated group)/(lesion area of the untreated group)]×100 Equation 2

Structure (SMILES)	Efficacy (%) ([1]; concentration in medium 0.0001 ppm)	Efficacy (%) ([1]; concentration in medium 0.01 ppm)	Efficacy (%) ([2]; concentration in agent solution 0.002 ppm)	Efficacy (%) ([2]; concentration in agent solution 0.01 ppm)	Efficacy (%) ([1]; concentration in medium 0.001 ppm)	Efficacy (%) ([2]; concentration in agent solution 0.001 ppm)	Efficacy (%) ([2]; concentration in agent solution 0.02 ppm)
Cc1cccc(-n2nnn(C)c2=O)c1COc1ccn(-c2ccc(Cl)cc2)n1 [Present compound 1-3, 1-(2-{[1-(4-chlorophenyl)-1H-pyrazol-3-yl]oxymethyl}-3-methylphenyl)-4-methyl-1,4-dihydrotetrazol-5-one]	20	37	35	70			
CC1CC(C)(C)c2c(F)ccc(NC(=O)c3cn(C)nc3C(F)F)c21 (stereo not shown) [Present compound 2]					20	15	55
